# Experimental data from patent publication US20150314021A1, “STERILIZATION METHOD COMPRISING STERILIZATION FLUID AND ULTRASONICALLY GERERATED CAVITATION MICROBUBBLES” (DEVIS TECHNOLOGIES INC., priority 2012, published 2015).
# Read-outs that look alike come from different tables or passages of the source.
# System: Bacillus atrophaeus and Bacillus stearothermophilus
# Details: H2O2 alone (no ultrasound)
structure (smiles),measurement,setting,value
"OO [Hydrogen Peroxide, hydrogen peroxide]",reduction in cell count,1 min exposure,50.02%
same,reduction in cell count,5 min exposure,50.12%
